In BindingDB's records for doi:10.1016/j.bmc.2023.117383 (Fuzhou University, 2023):

Columns and labels:
[1] = molecular target: T1, Crossover junction endonuclease MUS81 (Homo sapiens, UniProt Q96NY9); assay: Binding affinity to human GST-tagged MUS81-ECE2 expressed in Escherichia coli BL21(DE3)Rosetta2 cells assessed as dissociation constant by Surface plasmon resonance analysis
T1 sequence (Q96NY9 whole entry): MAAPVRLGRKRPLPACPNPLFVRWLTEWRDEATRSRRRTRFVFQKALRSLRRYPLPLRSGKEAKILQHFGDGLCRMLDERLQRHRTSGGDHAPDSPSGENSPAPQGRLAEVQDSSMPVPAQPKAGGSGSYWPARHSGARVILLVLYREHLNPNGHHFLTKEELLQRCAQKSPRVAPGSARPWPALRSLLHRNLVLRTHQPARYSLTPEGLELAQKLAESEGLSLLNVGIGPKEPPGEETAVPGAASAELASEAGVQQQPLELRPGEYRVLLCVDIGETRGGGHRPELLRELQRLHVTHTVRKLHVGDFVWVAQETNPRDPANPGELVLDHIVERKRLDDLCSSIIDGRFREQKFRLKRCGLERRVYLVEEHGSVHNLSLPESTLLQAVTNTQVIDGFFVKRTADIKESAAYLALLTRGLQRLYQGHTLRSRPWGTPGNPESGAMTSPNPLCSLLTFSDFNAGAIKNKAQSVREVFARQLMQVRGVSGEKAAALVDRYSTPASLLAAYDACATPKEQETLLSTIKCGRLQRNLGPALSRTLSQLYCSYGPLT

[2] = molecular target: T1, Crossover junction endonuclease MUS81; assay: Binding affinity to human GST-tagged MUS81-ECE1 expressed in Escherichia coli BL21(DE3)Rosetta2 cells assessed as dissociation constant by Surface plasmon resonance analysis

- Kd [1]: 6.1 nM
- Kd [2]: 6.1 nM
Structure (SMILES): O=C(N/N=C/c1cc(O)c(O)cc1O)c1cc2ccccc2cc1O
